Tests used:
Assay in all cases: relative viability (nuclei count vs DMSO), 5 days (fraction); higher = more cells survive
Wnt-C59 = compound: CC1=NC=CC(=C1)C2=CC=C(C=C2)CC(=O)NC3=CC=C(C=C3)C4=CN=CC=C4 [Wnt-C59]
Summary of the method: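 Cells of lung cancer lines were placed in 1536-well plates and kept overnight at 37 °C. Pinning then delivered five library-drug doses (not always all listed), spaced by √10, onto plates anchored with vehicle, and the cells were left 5 days without changing medium. One step fixed, permeabilised and stained them with Hoechst, and MetaXpress counted nuclei in 4× images. Viability, as a median over plates, is treated-well nuclei divided by vehicle-well nuclei, with acceptance only at control CV below 25% and at least one doubling.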

Wnt-C59 + Palbociclib = compound: CC1=NC=CC(=C1)C2=CC=C(C=C2)CC(=O)NC3=CC=C(C=C3)C4=CN=CC=C4 [Wnt-C59] + CC(=O)c1c(C)c2cnc(Nc3ccc(N4CCNCC4)cn3)nc2n(C2CCCC2)c1=O [Palbociclib] (partner 0.5 µM)
Summary of the method: (§1)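 Five library-drug doses in √10 steps were combined with a fixed anchor-drug dose, or a single drug was given alone, by pin tool to lung cancer cell lines in 1536-well plates the day after seeding. Nuclei were stained and counted after 5 days. Relative viability is the nuclei count in treated wells over that in vehicle wells, taken as the median of duplicate plates.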

Lapatinib + Tozasertib = compound: CS(=O)(=O)CCNCc1ccc(-c2ccc3ncnc(Nc4ccc(OCc5cccc(F)c5)c(Cl)c4)c3c2)o1 [Lapatinib] + Cc1cc(Nc2cc(N3CCN(C)CC3)nc(Sc3ccc(NC(=O)C4CC4)cc3)n2)n[nH]1 [Tozasertib] (partner 0.1 µM)
Summary of the method: as §1

Lapatinib + Bortezomib = compound: CS(=O)(=O)CCNCc1ccc(-c2ccc3ncnc(Nc4ccc(OCc5cccc(F)c5)c(Cl)c4)c3c2)o1 [Lapatinib] + CC(C)C[C@H](NC(=O)[C@H](Cc1ccccc1)NC(=O)c1cnccn1)B(O)O [Bortezomib] (partner 0.002 µM)
Summary of the method: as §1

Cell Line | relative viability (Wnt-C59; 0.001 µM) | relative viability (Wnt-C59; 0.01 µM) | relative viability (Wnt-C59; 0.03162 µM) | relative viability (Wnt-C59; 0.1 µM) | relative viability (Wnt-C59 + Palbociclib; first compound 0.001 µM) | relative viability (Wnt-C59 + Palbociclib; first compound 0.01 µM) | relative viability (Wnt-C59 + Palbociclib; first compound 0.03162 µM) | relative viability (Wnt-C59 + Palbociclib; first compound 0.1 µM) | relative viability (Lapatinib + Tozasertib; first compound 0.06325 µM) | relative viability (Lapatinib + Tozasertib; first compound 0.2 µM) | relative viability (Lapatinib + Tozasertib; first compound 0.6325 µM) | relative viability (Lapatinib + Tozasertib; first compound 2 µM) | relative viability (Lapatinib + Bortezomib; first compound 0.06325 µM) | relative viability (Lapatinib + Bortezomib; first compound 0.2 µM) | relative viability (Lapatinib + Bortezomib; first compound 0.6325 µM) | relative viability (Lapatinib + Bortezomib; first compound 2 µM) | relative viability (Lapatinib + Tozasertib; first compound 0.02 µM) | relative viability (Lapatinib + Bortezomib; first compound 0.02 µM)
NCI-H2126 | 1.02 | 0.976 | 1.03 | 1.04 | 0.378 | 0.36 | 0.35 | 0.36 | 0.664 | 0.844 | 0.712 | 0.547 | 1.05 | 1.04 | 1.03 | 1.03 | – | –
EMC-BAC-2 | 0.891 | 0.874 | 0.868 | 0.962 | 0.496 | 0.437 | 0.438 | 0.413 | 0.344 | 0.309 | 0.319 | 0.299 | 0.999 | 1.07 | 0.991 | 0.87 | 0.309 | 0.871
NCI-H520 | 1.1 | 0.95 | 0.901 | 1.07 | 0.244 | 0.208 | 0.239 | 0.222 | 0.393 | 0.41 | 0.543 | 0.405 | 0.388 | 0.59 | 0.54 | 0.416 | 0.511 | 0.699
LXF-289 | 0.983 | 0.993 | 0.999 | 0.976 | 0.624 | 0.551 | 0.602 | 0.606 | 0.155 | 0.177 | 0.173 | 0.168 | 0.931 | 0.981 | 1 | 0.929 | 0.178 | 0.972
EPLC-272H | 1.01 | 0.886 | 1.15 | 0.987 | 0.306 | 0.277 | 0.352 | 0.316 | – | 0.21 | 0.2 | 0.239 | 0.837 | 0.904 | 1.01 | 0.781 | – | –
NCI-H838 | 0.981 | 0.985 | 0.964 | 0.995 | 0.238 | 0.22 | 0.238 | 0.221 | 0.257 | 0.256 | 0.258 | 0.221 | 0.461 | 0.843 | 0.829 | 0.674 | 0.235 | 1.08
NCI-H2405 | 1.01 | 0.932 | 0.945 | 0.977 | 0.516 | 0.506 | 0.498 | 0.473 | 0.694 | 0.807 | 0.759 | 0.561 | 0.946 | 1.06 | 0.963 | 0.854 | 0.665 | 0.66
LC-2-ad | 1.05 | 0.966 | 0.933 | 0.955 | 0.484 | 0.509 | 0.536 | 0.505 | 0.392 | 0.444 | 0.456 | 0.372 | 0.936 | 0.994 | 1.14 | 0.96 | – | –
NCI-H3122 | 0.989 | 0.991 | 1.02 | 0.962 | 0.183 | 0.201 | 0.22 | 0.186 | 0.366 | 0.479 | 0.341 | 0.349 | 1 | 0.965 | 0.972 | 1.02 | – | 0.927
NCI-H727 | 1.01 | 0.854 | 0.867 | 0.931 | 0.607 | 0.678 | 0.627 | 0.733 | – | 0.704 | 0.453 | 0.391 | 0.78 | 1.04 | 1.09 | 0.801 | 0.602 | 0.758
A-427 | 0.965 | 0.817 | 1.05 | 1.04 | 0.55 | 0.513 | 0.509 | 0.562 | 0.252 | 0.209 | 0.231 | 0.185 | 0.953 | 1.05 | 0.901 | 0.976 | – | –
201T | 0.972 | 0.958 | 0.982 | 0.976 | 0.347 | 0.352 | 0.359 | 0.358 | 0.716 | 0.886 | 0.923 | 0.792 | 1.12 | 1.08 | 1.08 | 1.14 | 0.967 | 1.06
SK-LU-1 | 1 | 0.987 | 1.01 | 1.01 | 0.356 | 0.343 | 0.423 | 0.359 | 0.306 | 0.3 | 0.29 | 0.235 | 1.04 | 1.05 | 1.2 | 1.2 | 0.32 | –
NCI-H1975 | 0.901 | 0.896 | 0.968 | 0.988 | 0.605 | 0.601 | 0.607 | 0.554 | 0.516 | 0.25 | 0.178 | 0.167 | 0.358 | 0.407 | 0.405 | 0.32 | 0.583 | 0.467
NCI-H322M | 0.999 | 0.859 | 0.84 | 0.867 | 0.465 | 0.495 | 0.427 | 0.447 | 0.457 | 0.395 | 0.477 | 0.343 | 1.02 | 1.08 | 1.23 | 1.3 | 0.437 | 1.12
RERF-LC-KJ | 1 | 0.978 | 1.09 | 0.987 | 1.22 | 1.07 | 1.2 | 1.08 | 0.425 | 0.436 | 0.413 | 0.337 | 0.948 | 1.02 | 0.983 | 0.766 | 0.525 | 0.911
NCI-H23 | 0.827 | 0.972 | 1.01 | 1 | 0.51 | 0.508 | 0.521 | 0.474 | – | 0.29 | 0.307 | 0.218 | – | 1.02 | 1.07 | 0.813 | – | –
NCI-H2347 | 1.05 | 1.01 | 1.03 | 0.997 | 0.437 | 0.445 | 0.484 | 0.417 | 0.57 | 0.52 | 0.439 | 0.399 | 1.17 | 0.87 | 0.796 | 1 | – | –

Source: the supplement of paper PMC10307832
